Here are results for two molecules from patent US9469831B2, “Lactobacillus plantarum cells with improved resistance to high concentrations of ethanol” (Chr. Hansen A/S, priority 2011, dated 2016).

The test system of assay [1] is Lactobacillus plantarum CHCC14255. Particulars: strain CHCC14255; GJ-5 medium with 11% ethanol, 3 days incubation at 25° C. The protocol:
(§1) Medium: The medium is the standard GJ-5 medium as used in Example 1 above.
(§2) A Lactobacillus plantarum cell that has an improved resistance towards ethanol as discussed herein—is herein defined as a Lactobacillus plantarum cell that can grow to an OD600 of at least 0.8 after 3 days incubation at 25° C. in the GJ-5 medium with 11% ethanol.

The subject of assay [2] is Lactobacillus plantarum CHCC14254. The settings on record: strain CHCC14254; GJ-5 medium with 11% ethanol, 3 days incubation at 25° C. The protocol: as §1, §2
Assay [3] has as its system Lactobacillus plantarum CHCC14158. Particulars: strain CHCC14158; GJ-5 medium with 11% ethanol, 3 days incubation at 25° C. The protocol:
as §1, §2

The test system of assay [4] is Lactobacillus plantarum CHCC14255. As to the kind of experiment: D-cycloserine resistance assay (OD600 growth in GJ-5 medium). Type of assay: cell-based. Particulars: Lactiplantibacillus plantarum, strain CHCC14255, 24 hours growth at 18° C., vs 0 μg/ml D-cycloserine, read-out: amount of D-cycloserine that reduces the OD600 measured growth with 50%. Here is the method:
(§3) Medium: The medium is the known Grape Juice GJ-5 medium described in column 20, lines 10 to 20 of U.S. Pat. No. 7,112,346 (Chr. Hansen A/S).
(§4) As described in lines 10 to 20 of U.S. Pat. No. 7,112,346—the GJ-5 medium has the following composition: • Grape juice concentrate 70.0 g • Yeast paste 30.0 g • Tween 80 0.5 g • MnSO4H2O 0.1 g • Tap water 900.0 g
(§5) A Lactobacillus plantarum strain of interest is inoculated into 10 ml GJ-5 medium containing one of the following amounts of D-cycloserine: 0 μg/ml, 10 μg/ml, 20 μg/ml, 30 μg/ml, 50 μg/ml, 70 μg/ml, 100 μg/ml, 150 μg/ml or 200 μg/ml of D-cycloserine. The strain is grown 24 hours at 18° C. in the GJ-5 medium with the different concentrations of D-cycloserine.
(§6) After the 24 hours growth is OD600 measured for all samples.

Assay [5] has as its system Lactobacillus plantarum CHCC14254. The assay is described as above. The format is cell-based. Particulars: Lactiplantibacillus plantarum, strain CHCC14254, 24 hours growth at 18° C., vs 0 μg/ml D-cycloserine, read-out: amount of D-cycloserine that reduces the OD600 measured growth with 50%. The protocol: as §3, §4, §5, §6
Assay [6] has as its system Lactobacillus plantarum CHCC14158. The assay is described as above. The format is cell-based. The settings on record: Lactiplantibacillus plantarum, strain CHCC14158, 24 hours growth at 18° C., vs 0 μg/ml D-cycloserine, read-out: amount of D-cycloserine that reduces the OD600 measured growth with 50%. Here is the method:
as §3, §4, §5, §6

SMILES strings stand for the structures. ≈ marks a conversion by molar mass, not a printed value.

Consider `CCO` [ethanol], for which the entries for the “OD600 reached by growth in presence of ethanol” value in assay [1], in assay [2] and in assay [3] were “more than 1”, “at least 0.8” and “around 0.65”, respectively.
Consider `N[C@@H]1CON=C1O` [D-cycloserine, D-4-amino-isoxazolidone], for which the results for the IC50 in assay [4], in assay [5] and in assay [6] were approximately 100 µg/mL (≈ 979 µM), approximately 100 µg/mL (≈ 979 µM) and 60 to 65 µg/mL (≈ 588 to 637 µM), respectively.
